This note sets out measurements from patent US20110086834A1, “ALKYNYL ALCOHOLS AS KINASE INHIBITORS” (AMGEN INC., priority 2008, published 2011).

pIC50, pKi: −log10 of the molar value.

T1 sequence (Q99558 400-655 limits assumed): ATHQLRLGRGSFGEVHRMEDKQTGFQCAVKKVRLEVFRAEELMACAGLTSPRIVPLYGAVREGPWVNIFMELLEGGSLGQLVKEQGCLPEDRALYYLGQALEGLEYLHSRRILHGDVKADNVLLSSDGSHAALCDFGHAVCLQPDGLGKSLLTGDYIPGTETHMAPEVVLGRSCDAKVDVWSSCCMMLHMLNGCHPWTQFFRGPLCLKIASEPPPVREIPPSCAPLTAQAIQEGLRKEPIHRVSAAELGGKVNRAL

The first test has as its target T1, NIK (Homo sapiens, UniProt Q99558).
T1 construct: Both assays utilize a truncated form of NIK containing only the catalytic domain; made in house; host or cells: baculovirus expression system (insect cells implied)
As to the kind of experiment: homogenous time resolved fluorescence (HTRF) assay for NIK Ki measurement. Format: biochemical. The conditions noted are these: truncated NIK (catalytic domain only), autophosphorylation; 10 nM enzyme; 20, 100, 200 or 500 μM ATP; room temperature, 2 hours; read-out: Ki activity in the homogenous time resolved fluorescence (HTRF) assay for NIK. In general terms: Time-resolved FRET reads energy transfer from a long-lived donor to a nearby acceptor.
A word on the pKi: it is the Ki on a negative log10 scale, so that one unit is a factor of ten. On to `Cc1cnc(C(C)(O)C#Cc2ccc3c(c2)N(c2nc(N)ncc2Cl)CC3(C)C)s1` (centres unmarked) [Example 303, 4-(1-(2-Amino-5-chloro-4-pyrimidinyl)-3,3-dimethyl-2,3-dihydro-1H-indol-6-yl)-2-(5-methyl-1,3-thiazol-2-yl)-3-butyn-2-ol], for which the pKi was more than 6.00. With `Cc1[nH]c2ccc(C#CC(C)(O)c3nccs3)cc2c1-c1ccncc1` (centres unmarked) [Example 295, 4-(2-Methyl-3-(4-pyridinyl)-1H-indol-5-yl)-2-(1,3-thiazol-2-yl)-3-butyn-2-ol], the pKi was more than 6.00. In the case of `C[C@@](O)(C#Cc1ccc2c(c1)C(c1nc(N)ncc1Cl)=CC21CCOCC1)c1nccs1` [Example 221, (2R)-4-(3-(2-Amino-5-chloro-4-pyrimidinyl)-2′,3′,5′,6′-tetrahydrospiro[indene-1,4′-pyran]-5-yl)-2-(1,3-thiazol-2-yl)-3-butyn-2-ol], the pKi was more than 6.00.

As for `C[C@](O)(C#Cc1ccc2c(c1)N(c1nc(N)ncc1Cl)CC21CCOCC1)c1nccs1` (single isomer, unassigned) [Example 209a], the negative-log Ki (pKi) was 4.52 to 6.00. For `CC(O)(C#Cc1ccc2c(c1)N(c1nc(N)ncc1Cl)CC2)c1ncc(CO)s1` (centres unmarked) [Example 8, 4-(1-(2-amino-5-chloropyrimidin-4-yl)indolin-6-yl)-2-(5-(hydroxymethyl)thiazol-2-yl)but-3-yn-2-ol], the pKi is more than 6.00. Turning to `C[C@@](O)(C#Cc1ccc2c(c1)N(c1nc(N)ncc1Cl)CC21CCS(=O)(=O)CC1)c1nccs1` [Example 218, (2R)-4-(1-(2-Amino-5-chloro-4-pyrimidinyl)-1′,1′-dioxido-1,2,2′,3′,5′,6′-hexahydrospiro[indole-3,4′-thiopyran]-6-yl)-2-(1,3-thiazol-2-yl)-3-butyn-2-ol], the negative logarithm of the Ki (pKi) was more than 6.00. `CC(O)(C#Cc1ccc2ncc(-c3ccncn3)n2c1)c1nccs1` (centres unmarked) [Example 302, 4-(3-(4-pyrimidinyl)imidazo[1,2-a]pyridin-6-yl)-2-(1,3-thiazol-2-yl)-3-butyn-2-ol]: the negative-log Ki (pKi) is more than 6.00.

On to `CC(O)(C#Cc1ccc2c(c1)N(c1nc(N)ncc1Cl)CC21CCOCC1)c1nccs1` (racemic) [Example 208, (rac)-4-(1-(2-Amino-5-chloro-4-pyrimidinyl)-1,2,2′,3′,5′,6′-hexahydrospiro[indole-3,4′-pyran]-6-yl)-2-(1,3-thiazol-2-yl)-3-butyn-2-ol], for which the pKi was more than 6.00.

`CC(O)(C#Cc1ccc2[nH]nc(-c3ccns3)c2c1)c1nccs1` (centres unmarked) [Example 83, 4-(3-(isothiazol-5-yl)-1H-indazol-5-yl)-2-(thiazol-2-yl)but-3-yn-2-ol]: the negative logarithm of the Ki (pKi) was more than 6.00. For the compound `Cc1ccc(C(C)(O)C#Cc2ccc3c(c2)N(c2ccnc(N)n2)CC3)s1` (centres unmarked) [Example 280, 4-(1-(2-Amino-4-pyrimidinyl)-2,3-dihydro-1H-indol-6-yl)-2-(5-methyl-2-thienyl)-3-butyn-2-ol], the pKi was more than 6.00.

For `Nc1ncc(F)c(-c2cn(CC3CCOC3)c3ccc(C#CC4(O)CCCC4)cc23)n1` (centres unmarked) [Example 135, 1-(2-(3-(2-amino-5-fluoropyrimidin-4-yl)-1-((tetrahydrofuran-3-yl)methyl)-1H-indol-5-yl)ethynyl)cyclopentanol], the pKi was more than 6.00. On to `Nc1ncc(Cl)c(-c2cn(CCN3CCOCC3)c3ccc(C#CC4(O)CCCC4)cc23)n1` [Example 126, 1-(2-(3-(2-amino-5-chloropyrimidin-4-yl)-1-(2-morpholinoethyl)-1H-indol-5-yl)ethynyl)cyclopentanol], for which the pKi is more than 6.00.

For the compound `CC1(CO)CN(c2nc(N)ncc2F)c2cc(C#CC3(O)CCCC3)ccc21` (centres unmarked) [Example 66, 1-((1-(2-amino-5-fluoro-4-pyrimidinyl)-3-(hydroxymethyl)-3-methyl-2,3-dihydro-1H-indol-6-yl)ethynyl)cyclopentanol], the pKi is more than 6.00.

As to `CN1CC[C@](O)(C#Cc2ccc3c(c2)N(c2nc(N)ncc2Cl)CC3(C)C)C1=O` [Example 44, (3S)-3-((1-(2-amino-5-chloro-4-pyrimidinyl)-3,3-dimethyl-2,3-dihydro-1H-indol-6-yl)ethynyl)-3-hydroxy-1-methyl-2-pyrrolidinone], the pKi was more than 6.00.

For `N#Cc1ccc(-c2[nH]c3ccc(C#CC4(O)CCCC4)cc3c2-c2ccnc(N)n2)cc1` [Example 94, 4-(3-(2-aminopyrimidin-4-yl)-5-(2-(1-hydroxycyclopentyl)ethynyl)-1H-indol-2-yl)benzonitrile], the pKi was more than 6.00. Regarding `COCCn1cc(-c2nc(N)ncc2Cl)c2cc(C#CC3(O)CCCC3)ccc21` [Example 125, 1-(2-(3-(2-amino-5-chloropyrimidin-4-yl)-1-(2-methoxyethyl)-1H-indol-5-yl)ethynyl)cyclopentanol], the pKi is more than 6.00.

On to `COCC1(C)CN(c2nc(N)nc3[nH]cnc23)c2cc(C#CC3(O)CCCC3)ccc21` (centres unmarked) [Example 69, 1-((1-(2-amino-9H-purin-6-yl)-3-(methoxymethyl)-3-methyl-2,3-dihydro-1H-indol-6-yl)ethynyl)cyclopentanol], for which the negative-log Ki (pKi) is more than 6.00. Still for that read-out and setting: the value for `CC(O)(C#Cc1ccc2ncc(-c3nc(N)ncc3Cl)n2c1)c1ncco1` (centres unmarked) [Example 309, 4-(3-(2-Amino-5-chloro-4-pyrimidinyl)imidazo[1,2-a]pyridin-6-yl)-2-(1,3-oxazol-2-yl)-3-Butyn-2-ol] was more than 6.00; that for `CC(O)(C#Cc1ccc2c(c1)N(c1ccncc1)CC2(CO)CO)c1nccs1` (centres unmarked) [Example 59, 4-(3,3-bis(hydroxymethyl)-1-(4-pyridinyl)-2,3-dihydro-1H-indol-6-yl)-2-(1,3-thiazol-2-yl)-3-butyn-2-ol] was more than 6.00. Same read-out and setting: the same measure for `CNC(=O)C(C)(O)C#Cc1ccc2c(c1)N(c1nc(N)ncc1Cl)CC2(C)C` (centres unmarked) [Example 49, 4-(1-(2-amino-5-chloro-4-pyrimidinyl)-3,3-dimethyl-2,3-dihydro-1H-indol-6-yl)-2-hydroxy-N,2-dimethyl-3-butynamide]: more than 6.00; for `Cn1cncc1C(O)C#Cc1ccc2c(c1)N(c1nc(N)ncc1Cl)CC2(C)C` (single isomer, unassigned) [Example 42, (1R*)-3-(1-(2-amino-5-chloro-4-pyrimidinyl)-3,3-dimethyl-2,3-dihydro-1H-indol-6-yl)-1-(1-methyl-1H-imidazol-5-yl)-2-propyn-1-ol]: 4.52 to 6.00.

On to `COc1cnc(N)nc1-c1c[nH]c2ccc(C#CC3(O)CCCC3)cc12` [Example 227, 1-((3-(2-Amino-5-methoxy-4-pyrimidinyl)-1H-indol-5-yl)ethynyl)cyclopentanol], for which the pKi was more than 6.00. Consider `Nc1ncc(F)c(-c2c[nH]c3ccc(C#CC4(O)CCCC4)cc23)n1` [Example 95, 1-(2-(3-(2-amino-5-fluoropyrimidin-4-yl)-1H-indol-5-yl)ethynyl)cyclopentanol], for which the pKi is more than 6.00. For the compound `Nc1ncc(OCCOCCN2CCOCC2)c(-c2c[nH]c3ccc(C#CC4(O)CCCC4)cc23)n1` [Example 231, 1-((3-(2-Amino-5-(2-(2-(4-morpholinyl)ethoxy)ethoxy)-4-pyrimidinyl)-1H-indol-5-yl)ethynyl)cyclopentanol], the negative-log Ki (pKi) was more than 6.00. Regarding `CC(O)(C#Cc1ccc2c(c1)N(c1nc(N)ncc1Cl)CC2(C)C)c1nccs1` (racemic) [Example 39, 4-(1-(2-amino-5-chloro-4-pyrimidinyl)-3,3-dimethyl-2,3-dihydro-1H-indol-6-yl)-2-(1,3-thiazol-2-yl)-3-Butyn-2-ol], the negative logarithm of the Ki (pKi) is more than 6.00. Consider `Cc1cc(C(C)(O)C#Cc2ccc(F)c(Nc3nc(N)ncc3Cl)c2)no1` (centres unmarked) [Example 167, 4-(3-(2-Amino-5-chloropyrimidin-4-ylamino)-4-fluorophenyl)-2-(5-methylisoxazol-3-yl)but-3-yn-2-ol], for which the negative-log Ki (pKi) is more than 6.00. As to `O=C(NCCCN1CCOCC1)c1cnccc1-n1ccc2ccc(C#CC3(O)CCCC3)cc21` [Example 254, 4-(6-((1-Hydroxycyclopentyl)ethynyl)-1H-indol-1-yl)-N-(3-(4-morpholinyl)propyl)-3-pyridinecarboxamide], the pKi is 4.52 to 6.00. Turning to `C[C@@](O)(C#Cc1ccc2c(c1)N(c1ccnc(N)n1)CC2)c1nccs1` [Example 294, (2R)-4-(1-(2-amino-4-pyrimidinyl)-2,3-dihydro-1H-indol-6-yl)-2-(1,3-thiazol-2-yl)-3-Butyn-2-ol], the pKi was more than 6.00.

Another test deals with T1, NIK. As to the kind of experiment: chemiluminescent (CL) assay for NIK IC50 determination. Format: biochemical. The settings on record: truncated NIK (catalytic domain only), autophosphorylation; 50 nM biotinylated-NIK; 50 μM ATP; room temperature, 1 hour. The procedure: Two formats of biochemical assays are implemented: (1) chemiluminescent (CL) assay for NIK IC50 determination; (2) homogenous time resolved fluorescence (HTRF) assay for NIK Ki measurement. […] The NIK proteins are purified with baculovirus expression system and further biotinylated with N-hydroxysuccinamide biotin ester (Sigma). […] The reaction mixtures are then immobilized on a Streptavidin-coated plate (Pierce). […] For the HTRF assay, 10 nM of enzyme are incubated with compounds in the presence of 20, 100, 200, or 500 μM of ATP in a buffer with 20 mM of Hepes pH7.5, 20 mM of MgCl2, 0.2% of Tween 20 and 1 mM of DTT at room temperature for 2 hours.
What is called pIC50 is the negative decadic logarithm of the IC50, by convention in mol/L. The low end stands for a high IC50, the high end for a low IC50. Take `COCCn1cc(-c2nc(N)ncc2Cl)c2cc(C#CC(C)(O)c3nccs3)ccc21` (centres unmarked) [Example 115, 4-(3-(2-amino-5-chloropyrimidin-4-yl)-1-(2-methoxyethyl)-1H-indol-5-yl)-2-(thiazol-2-yl)but-3-yn-2-ol]: the negative-log IC50 (pIC50) was more than 6.00. On the same count and under the same terms, the same measure for `CC(O)(C#Cc1ccc2c(c1)N(c1nc(N)ncc1Cl)CC2)c1nccs1` (centres unmarked) [Example 286, 4-(1-(2-Amino-5-chloro-4-pyrimidinyl)-2,3-dihydro-1H-indol-6-yl)-2-(1,3-thiazol-2-yl)-3-Butyn-2-ol]: more than 6.00; for `Nc1ncc(Cl)c(-c2cn(C(=O)c3cccnc3)c3ccc(C#CC4(O)CCCC4)cc23)n1` [Example 123, (3-(2-amino-5-chloropyrimidin-4-yl)-5-(2-(1-hydroxycyclopentyl)ethynyl)-1H-indol-1-yl)(pyridin-3-yl)methanone]: more than 6.00; for `CC1(CCO)CN(c2nc(N)ncc2Cl)c2cc(C#CC3(O)CCCC3)ccc21` (centres unmarked) [Example 51, 1-((1-(2-amino-5-chloro-4-pyrimidinyl)-3-(2-hydroxyethyl)-3-methyl-2,3-dihydro-1H-indol-6-yl)ethynyl)cyclopentanol]: more than 6.00.
